Data as given in patent US20060014740A1 (priority 2003, published 2006).
Counter-ions that a name gives are not always drawn. Like-named read-outs stand apart in the source and are kept apart here.

Assays:
Assay type in all cases: cell-based
[1] = test system: RH7777 rat hepatoma cells; assay: SRB cytotoxicity assay, RH7777 control cell line; settings: read-out: IC50 RH7777
Protocol: (§1) For in vitro cytotoxicity screening, 1000 to 5000 cells were plated into each well of 96-well plates depending on growth rate, and exposed to different concentrations of a test compound for 96 h in three to five replicates. All the compounds were dissolved in dimethyl sulfoxide at 5 to 20 mM, and diluted to desired concentrations in complete culture medium. Cell numbers at the end of the drug treatment were measured by the SRB assay (Gududuru et al., “Synthesis and Biological Evaluation of Novel Cytotoxic Phospholipids for Prostate Cancer,” Bioorg. Med. Chem. Lett. 14:4919-4923 (2004); Rubinstein et at., “Comparison of in vitro Anticancer-Drug-Screening Data Generated with a Tetrazolium Assay Versus a Protein Assay Against a Diverse Panel of Human Tumor Cell Lines,” J. Naatl, Cancer Inst. 82:1113-1118 (1990), each of which is hereby incorporated by reference in its entirety). Briefly, the cells were fixed with 10% of trichloroacetic acid, stained with 0.4% SRB, and the absorbances at 540 nm was measured using a plate reader (DYNEX Technologies, Chantilly, Va.).
(§2) The antiproliferative activity of all the synthesized compounds was evaluated against five human prostate cancer cell lines and in RH7777 cells (negative control) using the sulforhodamine B (SRB) assay (see description in Example 5 above).
(§3) The chosen cell lines represent different basal levels of active AKT and LPL receptor expression (discussed later). Cells were exposed to a wide range of concentrations (0 to 100 μM) of the indicated compound for 96 h. Cell numbers at the end of treatment were measured using the sulforhodamine B (SRB) assay^5.
(§4) Cells were exposed to a wide range of concentrations (0 to 100 μM) of the particular compound for 96 h in 96 well plates. Cells were fixed with 10% trichloroacetic acid, washed five times with water. The plates were air dried overnight and fixed cells were stained with SRB solution. The cellular protein-bound SRB was measured at 540 nm using a plate reader. Cell numbers at the end of the treatment were measured.
as §4, with “96-well” for “96 well”, “calculated as a percentage of untreated control.” for “measured.”

[2] = test system: LNCaP human prostate cancer cells; assay: SRB cytotoxicity assay, LNCaP; settings: for IC50: read-out: IC50 LNCaP
Protocol: as §1, §2, §3, §4
as §4, with “96-well” for “96 well”, “calculated as a percentage of untreated control.” for “measured.”

[3] = test system: TSU-Pr1 human prostate cancer cells; assay: SRB cytotoxicity assay, TSU-Pr1
Protocol: (§5) Dr. Mitchell Steiner at University of Tennessee Health Science Center, kindly provided PPG-1 and TSU-PrI cells.
as §1, §2, §3, §4
as §4, with “96-well” for “96 well”, “calculated as a percentage of untreated control.” for “measured.”

[4] = test system: PPC-1 human prostate cancer cells; assay: SRB cytotoxicity assay, PPC-1; settings: read-out: IC50 PPC-1
Protocol: as §5, §1, §2, §3, §4
as §4, with “96-well” for “96 well”, “calculated as a percentage of untreated control.” for “measured.”

[5] = test system: PC-3 human prostate cancer cells; assay: SRB cytotoxicity assay, PC-3; settings: for IC50: read-out: IC50 PC-3
Protocol: as §1, §2, §3, §4
as §4, with “96-well” for “96 well”, “calculated as a percentage of untreated control.” for “measured.”

[6] = test system: DU-145 human prostate cancer cells; assay: SRB cytotoxicity assay, DU-145
Protocol: as §1, §2, §3, §4
as §4, with “96-well” for “96 well”, “calculated as a percentage of untreated control.” for “measured.”

[7] = test system: human breast cancer cell line (MCF-7); assay: SRB cytotoxicity assay, MCF-7; settings: read-out: IC50 MCF-7
Protocol: as §1
In vitro cytotoxicity assay was performed by the same sulforhodamine B (SRB) assay (described above). The compounds shown in Table 8 below where tested for activity against the breast cancer and ovarian cancer cell lines.
as §3, §4

[8] = Homo sapiens, LNCaP, Example 10 table, 96 h
[9] = Homo sapiens, TSU-Pr1, Example 11 table, 96 h, read-out: IC50 TSU-Pr1
[10] = Rattus norvegicus, RH7777, Example 11 table, 96 h
[11] = Homo sapiens, PPC-1, Example 11 table, 96 h
[12] = Homo sapiens, Example 11 table, 96 h
[13] = Homo sapiens, DU-145, Example 11 table, 96 h, read-out: IC50 DU145
[14] = Homo sapiens, LNCaP, Example 11 table, 96 h
[15] = Homo sapiens, MCF7, Example 11 table, 96 h
[16] = Homo sapiens, MCF7, Table 8, breast cancer cell line

CCCCCCCCCCCCCCCCCCNC(=O)[C@@H]1CSC(c2cccc(O)c2)N1 (mixture of isomers) [Compound 14, (2RS, 4R)-2-(3-Hydroxy-phenyl)-thiazolidine-4-carboxylic add octadecylamide]
IC50 ([1]; Table 3, control cell line, 96 h): 31 µM

O=c1[nH]cc(F)c(=O)[nH]1 [5-FU, 5-fluorouracil, reference compound]
IC50 [2, 8]: 4.9 µM
IC50 ([2]; Homo sapiens, LNCaP, Table 6): 4.9 µM

N#Cc1ccc(C2N[C@H](C(=O)O)CS2)cc1 (stereo partly shown)
IC50 [3, 9]: > 100 µM
IC50 [1, 10]: > 100 µM
IC50 [4, 11]: > 100 µM
IC50 [5, 12]: > 100 µM
IC50 [6, 13]: > 100 µM
IC50 [2, 14]: > 100 µM
IC50 [7, 15]: > 100 µM

O=C(O)[C@@H]1CSC(c2c(Cl)cccc2Cl)N1 (stereo partly shown)
IC50 [3, 9]: > 100 µM
IC50 [1, 10]: > 100 µM
IC50 [4, 11]: > 100 µM
IC50 [5, 12]: > 100 µM
IC50 [6, 13]: > 100 µM
IC50 [2, 14]: > 100 µM
IC50 [7, 15]: > 100 µM

CCCCCCCCCCCCC1OC[C@@H](COP(=O)(O)O)O1.N.N (stereo partly shown)
IC50 ([3]; Example 11 table, 96 h, read-out: IC50 TSU-Pr1): > 100 µM
IC50 ([1]; Example 11 table, 96 h): > 100 µM
IC50 ([4]; Example 11 table, 96 h): > 100 µM
IC50 PC-3 ([5]; Example 11 table, 96 h): No toxicity
IC50 ([6]; Example 11 table, 96 h, read-out: IC50 DU145): > 100 µM
IC50 LNCaP ([2]; Example 11 table, 96 h): No toxicity
IC50 ([7]; Example 11 table, 96 h): > 100 µM

CCCCCCCCCCCCCCCCCCNC[C@H](CO)NC [drawing 51]
IC50 [3, 9]: > 100 µM
IC50 [1, 10]: > 100 µM
IC50 [4, 11]: > 100 µM
IC50 [5, 12]: > 100 µM
IC50 [6, 13]: > 100 µM
IC50 [2, 14]: > 100 µM
IC50 [7, 15]: > 100 µM

CCCCCCCCCCCCCCCCCCCNC(=O)[C@@H]1CSC(c2ccccc2)N1 (mixture of isomers) [Compound 6-HCI, (2RS, 4R)-2-Phenylthiazolidine-4-carboxylic acid nonadecylamide Hydrochloride]
IC50 ([3]; Table 3, 96 h, read-out: IC50 TSU-Pr1): > 20 µM
IC50 ([4]; Table 3, 96 h): 16.8 µM
IC50 ([6]; read-out: IC50 DU-145, Table 3, 96 h): > 20 µM
IC50 ([2]; Table 3, 96 h): 13.6 µM
IC50 ([7]; Table 8, breast cancer cell line): > 20 µM

CCCCCCCCCCCCCCCCCCCCNC[C@@H](N)CO [S4]
IC50 ([3]; Homo sapiens, TSU-Pr1, Example 10 table, 96 h, read-out: IC50 TSU-Pr1): 2.2 µM
IC50 ([1]; Rattus norvegicus, RH7777, Example 10 table, 0 to 100 μM for 96 h): 2.9 µM
IC50 ([4]; Homo sapiens, PPC-1, Example 10 table, 96 h): 1.9 µM
IC50 ([5]; Homo sapiens, Example 10 table, 96 h): 2.6 µM
IC50 ([6]; Homo sapiens, DU-145, read-out: IC50 DU-145, Example 10 table, 96 h): 4.1 µM
IC50 [2, 8]: 5.1 µM
IC50 ([7]; Homo sapiens, MCF7, Example 10 table, 96 h): 4.6 µM

COc1ccc(C2N[C@H](C(=O)O)CS2)cc1 (stereo partly shown)
IC50 ([3]; Homo sapiens, TSU-Pr1, 96 h, read-out: IC50 TSU-Pr1): > 100 µM
IC50 ([1]; Rattus norvegicus, RH7777, 96 h): > 100 µM
IC50 ([4]; Homo sapiens, PPC-1, 96 h): > 100 µM
IC50 ([5]; Homo sapiens, 96 h): > 100 µM
IC50 ([6]; Homo sapiens, DU-145, 96 h, read-out: IC50 DU145): ~100 µM
IC50 ([2]; Homo sapiens, LNCaP, 96 h): ~50 µM
IC50 ([7]; Homo sapiens, MCF7, 96 h): ~100 µM

O=C(O)[C@@H]1CSC(c2ccc(F)cc2)N1 (stereo partly shown)
IC50 [3, 9]: > 100 µM
IC50 [1, 10]: > 100 µM
IC50 [4, 11]: > 100 µM
IC50 [5, 12]: > 100 µM
IC50 [6, 13]: > 100 µM
IC50 [2, 14]: > 100 µM
IC50 [7, 15]: > 100 µM

COc1ccc(CCNC(=O)CN2C(=O)CSC2c2ccccc2)c(OC)c1 (stereo not shown) [Compound 78]
IC50 ([3]; Table 6, read-out: IC50 TSU-Pr1): > 100 µM
IC50 ([1]; Table 6, control cell line): > 100 µM
IC50 ([4]; Table 6): > 100 µM
IC50 ([5]; Table 6): > 100 µM
IC50 ([6]; read-out: IC50 DU-145, Table 6): > 100 µM
IC50 ([2]; Table 6): > 100 µM

CCCCCCCCCCCCCCCCCCCCNCC(CO)NC (stereo not shown) [S3]
IC50 ([2]; Example 10 table, 96 h): 3.3 µM
IC50 ([7]; Example 10 table, 96 h): 2.9 µM

CCCCCCCCCCCCC1N[C@H](C(=O)O)CS1 (stereo partly shown)
IC50 [3, 9]: ~20 µM
IC50 [1, 10]: > 20 µM
IC50 [4, 11]: 12.6 µM
IC50 [5, 12]: ~20 µM
IC50 [6, 13]: ~20 µM
IC50 [2, 14]: 16.1 µM
IC50 [7, 15]: 16.3 µM

CCCCCCCCCCCCCCCCCCNC(=O)[C@@H]1CSC(c2ccc(OC)cc2)N1 (mixture of isomers) [Compound 15-HCI, (2RS, 4R)-2-(4-Methoxy-phenyl)-thiazolidine-4-carboxylic acid octadecylamide Hydrochloride]
IC50 ([1]; Rattus norvegicus, RH7777, Table 3, control cell line, 96 h): > 20 µM
IC50 ([4]; Homo sapiens, PPC-1, Table 3, 96 h): 1.5 µM
IC50 ([5]; Homo sapiens, Table 3, 96 h): ~20 µM
IC50 ([6]; Homo sapiens, DU-145, read-out: IC50 DU-145, Table 3, 96 h): 8.7 µM
IC50 ([2]; Homo sapiens, LNCaP, Table 3, 96 h): 2.1 µM
IC50 [7, 16]: 16.3 µM

CCCCCCCCCCCCCCCCCCNCCN1C(=O)CSC1c1ccccc1 (stereo not shown) [Compound 79, 3-(2-(octadecylamino)ethyl)-2-phenylthiazolidin-4-one]
IC50 ([3]; Homo sapiens, TSU-Pr1, Table 7, read-out: IC50 TSU): 6.1 µM
IC50 ([1]; Rattus norvegicus, RH7777, Table 7, control cell line): > 20 µM
IC50 ([4]; Homo sapiens, PPC-1, Table 7): 12 µM
IC50 ([5]; Homo sapiens, Table 7): > 20 µM
IC50 ([6]; Homo sapiens, DU-145, read-out: IC50 DU-145, Table 7): 15.8 µM
IC50 ([2]; Homo sapiens, LNCaP, Table 7): > 20 µM

CCCCCCCCCCCCCCCCCCNC(=O)[C@@H]1CSC(c2ccc(-c3ccccc3)cc2)N1 (mixture of isomers) [Compound 27-HCI, (2RS, 4R)-2-Biphenyl-4-yl-thiazolidine-4-carboxylic acid octadecylamide Hydrochloride]
IC50 ([3]; Homo sapiens, TSU-Pr1, Table 4, 96 h, read-out: IC50 TSU-Pr1): > 20 µM
IC50 ([1]; Rattus norvegicus, RH7777, Table 4, control cell line, 96 h): > 20 µM
IC50 ([4]; Homo sapiens, PPC-1, Table 4, 96 h): > 20 µM
IC50 ([5]; Homo sapiens, Table 4, 96 h): > 20 µM
IC50 ([6]; Homo sapiens, DU-145, read-out: IC50 DU-145, Table 4, 96 h): > 20 µM
IC50 ([2]; Homo sapiens, LNCaP, Table 4, 96 h): > 20 µM
IC50 [7, 16]: > 20 µM

O=C(O)[C@@H]1CSC(c2cc(F)cc(F)c2)N1 (stereo partly shown)
IC50 [3, 9]: > 100 µM
IC50 [1, 10]: > 100 µM
IC50 [4, 11]: > 100 µM
IC50 [5, 12]: > 100 µM
IC50 [6, 13]: > 100 µM
IC50 [2, 14]: > 100 µM
IC50 [7, 15]: > 100 µM

CCCCCCCCCCCCCCCCCCNC(=O)[C@@H]1CSC(c2ccc(C#N)cc2)N1 (mixture of isomers) [Compound 22, (2RS, 4R)-2-(4-Cyano-phenyl)-thiazolidine-4-carboxylic acid octadccylamide]
IC50 ([1]; Table 4, control cell line, 96 h): > 20 µM
IC50 ([5]; Table 4, 96 h): > 20 µM

CCCCCCCCCCCCCCCCCCNCC(CO)NC (stereo not shown) [compound 318]
IC50 ([2]; Table 9, 96 h): 3.3 µM

CCCCCCCCCCCCCCCCCCNC[C@@H](N)CO [drawing 52]
IC50 [2, 14]: 3.3 µM
IC50 [7, 15]: 2.9 µM
